From patent US10761085B2, “Method for determining a protein-protein interaction” (MEDICAL & BIOLOGICAL LABORATORIES CO., LTD., priority 2014, dated 2020)

Legend:
[1] = tested on: homodimer formation of ERK2; test: Fluorescent focus detection of ERK2 homodimer formation after EGF, serum-starved HEK293 cells (Example 11); assay type: cell-based
Experimental: HEK293 cells were selected as cells into which the expression vectors prepared above were introduced. The cells were first cultured in DMEM (high glucose) supplemented with 10% FBS (manufactured by Equitech-Bio Inc.) and 1% penicillin-streptomycin. Then, on the day before the introduction of the expression vectors, these cells were seeded onto a 35-mm dish, and cultured in 1.5 ml of the culture solution. […] Thereafter, each solution of the expression vectors was added to the cultured cells. The pERK2-hmAG1PB1 transfected cells were observed 20 hours after the vector introduction. To the pERK2-PB1-hmAG1 transfected cells, G418 was added at a concentration of 500 μg/mL, and further cultured for one week. After that, viable cells were detached using a trypsin solution, diluted with a culture solution containing G418 (500 μg/ml), and then cultured in a 96-well plate at 0.5 cells/well. Subsequently, cells which formed single colonies were cultured to expand.
Then, the cells were observed using an IX-71 inverted fluorescence microscope (the magnification of the objective lens: 20×), a U-MGFPHQ filter, and an ORCA-ER digital camera. The homodimer formation of ERK2 was induced by adding EGF (epidermal growth factor, manufactured by Sigma-Aldrich Co.) to the buffer to the final concentration of 50 ng/ml. FIGS. 26 and 27 show images before the EGF addition and 8 minutes after the addition.

[2] = target: T1, FKBP12 mutant homodimer formation (Homo sapiens, UniProt P62942, F37V); test: FKBP12 mutant homodimer formation with DG1 or mCherry as fluorescent protein, HEK293 cells (Example 8); assay type: cell-based; settings: 500 nM, 1, 2 and 3 hours, room temperature; PB1-DG1-FKBP12 mutant and PB1-mCherry-FKBP12 mutant
T1 construct: expressed in transfected cells; host or cells: HEK293
Source text: To express the PB1-hDG1-FKBP12 mutant or the PB1-mCherry-FKBP12 mutant in cells, the vectors encoding these fusion proteins were introduced into HEK293 cells by the same method as that described in Example 4.
After the transfection treatment, the HEK293 cells were observed using an IX-81 inverted microscope and an ORCA-Flash 4.0 digital camera. A U-MNIBA3 filter (manufactured by Olympus Corporation) and a U-MWIG3 filter (manufactured by Olympus Corporation) were used respectively for the DG1 and mCherry observations. The homodimer formation of the FKBP12 mutant was induced by adding 500 nM B/B Homodimerizer. After the drug addition, the resultant was left standing at room temperature. The cells were observed after 1, 2, and 3 hours elapsed. FIGS. 22 and 23 show images before the drug addition and 1, 2, and 3 hours after the addition.
Target sequence in this assay (P62942 2-108 F37V limits assumed): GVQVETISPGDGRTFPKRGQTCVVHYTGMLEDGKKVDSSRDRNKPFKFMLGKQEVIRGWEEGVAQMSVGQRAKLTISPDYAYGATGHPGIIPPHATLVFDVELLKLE

[3] = target: T1, FKBP12 mutant homodimer formation; test: Fluorescent focus detection of FKBP12 mutant homodimer formation, PB1-mAG1-FKBP12 mutant transiently expressed in HEK293 cells (Example 1); assay type: cell-based; settings: 500 nM
Experimental: Next, the pPB1-hmAG1-FKBP12 mutant prepared as described above was introduced into HEK293 cells, and the fusion protein according to the present invention was expressed in the cells. Specifically, first, HEK293 cells were cultured in DMEM (high glucose, manufactured by SIGMA ALDRICH CO.) supplemented with 10% FBS (manufactured by Equitech-Bio Inc.) and 1% penicillin-streptomycin (manufactured by Life Technologies Corporation). Then, on the day before the transfection, the HEK293 cells cultured in this manner were seeded onto an 8-well chamber slide (manufactured by Nunc A/S), and cultured in 200 μL of the culture solution per well. Subsequently, 100 ng of the pPB1-hmAG1-FKBP12 mutant was diluted with 10 μL of OptiMEM (manufactured by Life Technologies Corporation), and 0.4 μL of Turbofect Transfection Reagent (manufactured by Thermo Fisher Scientific Inc.) was added thereto and then stirred. Thereafter, the resultant was further mixed with 100 μL of the culture solution, then added to the HEK293 cells, and cultured for 20 hours.
After the transfection treatment, the HEK293 cells were observed using an IX-71 inverted fluorescence microscope (manufactured by Olympus Corporation, the magnification of the objective lens: 20×), a U-MGFPHQ filter (manufactured by Olympus Corporation), and an ORCA-ER digital camera (manufactured by Hamamatsu Photonics K. K.). […]
Target sequence in this assay (P62942 whole entry F37V): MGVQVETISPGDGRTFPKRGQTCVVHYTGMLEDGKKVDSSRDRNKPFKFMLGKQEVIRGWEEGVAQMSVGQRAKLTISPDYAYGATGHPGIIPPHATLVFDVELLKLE

[4] = target: T1, FKBP12 mutant homodimer formation; test: Reversible FKBP12 mutant homodimer formation in HEK293 cells constitutively expressing PB1-hmAG1-FKBP12 mutant, spot detection image analysis (Example 2); assay type: cell-based
Experimental: The pPB1-hmAG1-FKBP12 mutant was introduced into HEK293 cells, and cells constitutively expressing the fusion protein according to the present invention (PB1-hmAG1-FKBP12 mutant) were prepared. Specifically, on the day before the introduction of the expression vector, HEK293 cells were seeded onto a 35-mm dish (manufactured by BD Falcon), and cultured in 1.5 mL of the culture solution. Then, 1 μg of the pPB1-hmAG1-FKBP12 mutant was diluted with 100 μL of OptiMEM (manufactured by Life Technologies Corporation), and 10 μL of PolyFect (registered trademark) Transfection Reagent (manufactured by QIAGEN N.V.) was added thereto and then stirred. […] Thereafter, G418 was added thereto at a concentration of 500 μg/mL, and further cultured for one week. After that, viable cells were detached using a trypsin solution, diluted with a culture solution containing G418 (500 μg/ml), and then cultured in a 96-well plate at 0.5 cells/well. […]
The images captured over time by the above method were analyzed using spot detection (spot detector) of an icy image analysis program (icy.bioimageanalysis.org/). Moreover, from the images, a graph was created in which the X axis represents the operation time (minutes), and the Y axis represents a numerical value of a total fluorescence intensity in regions of the fluorescent foci within boxes drawn around the regions by lines.
Target sequence in this assay (P62942 whole entry F37V): as above

[5] = target: T1, FKBP12 mutant homodimer formation; test: Comparative Example 1: method of PTL 4 (PB1-FKBP12 mutant and AG-FKBP12 mutant) for FKBP12 mutant homodimer formation in HEK293 cells; assay type: cell-based; settings: method of PTL 4, 66 minutes after the drug addition
Experimental: In the detection system described in PTL 4, the PB1 domain of the p62 protein was selected as the association-inducing protein. Moreover, AG was selected as the fluorescent multimerizable protein, and a DNA encoding humanized-codon AG (hAG) was used.
Further, an expression vector (pPB1-FKBP12 mutant) encoding a fusion protein composed of the FKBP12 mutant fused to the C-terminus of the PB1 domain of the p62 protein was prepared as follows. Specifically, a DNA having the nucleotide sequence of SEQ ID NO: 31 was artificially synthesized which contained restriction enzyme sites at either end of a DNA having a nucleotide sequence encoding the FKBP12 mutant (the DNA encoding a protein having the amino acid sequence of SEQ ID NO: 32). Then, the obtained synthetic DNA was cleaved with EcoRI and XhoI, and inserted into pAsh-MCLinker (manufactured by MEDICAL & BIOLOGICAL LABORATORIES CO., LTD.) having been treated with a combination of the same restriction enzymes. Thus, a pPB1-FKBP12 mutant was constructed. […]
Further, 100 ng of each of the expression vectors thus constructed was mixed, that is, 200 ng of these were mixed in total, and fluorescent foci in cells before and after the drug addition were detected according to the same methods as <Cell Culturing and Transfection> and <Observation of Cells> described in Example 1.
Target sequence in this assay (P62942 2-108 F37V limits assumed): as the sequence (P62942 2-108 F37V limits assumed) above

[6] = target: T1, FKBP12 mutant homodimer formation; test: FKBP12 mutant homodimer formation with SAM domain of Tankyrase 1 as multimerizable protein, HEK293 cells (Example 9); assay type: cell-based; settings: 500 nM, 3 hours, room temperature; Tankyrase-mAG1-FKBP12 mutant
Experimental: HEK293 cells were cultured in DMEM (high glucose) supplemented with 10% FBS and 1% penicillin-streptomycin. Then, on the day before the transfection, the cells were seeded onto an 8-well chamber slide. The cells were cultured in 200 μL of the culture solution per well. Subsequently, a DNA solution was prepared by mixing 200 ng of the plasmid with 10 μL of OptiMEM, and 0.8 μl of Fugene HD (manufactured by Promega Corporation) was added thereto and then stirred. The resultant was further mixed with 100 μl of the culture solution, then added to the HEK293 cells, and cultured for 20 hours.
After the transfection treatment, the HEK293 cells were observed using an IX-81 inverted microscope and an ORCA-Flash 4.0 digital camera. A U-MNIBA3 filter was used for the observation. The homodimer formation of the FKBP12 mutant was induced by adding 500 nM B/B Homodimerizer to the medium. In addition, after the drug was added, the resultant was left standing at room temperature. The cells were observed after 3 hours elapsed.
Target sequence in this assay (P62942 2-108 F37V limits assumed): as above

[7] = tested on: calmodulin and M13 peptide tetramer formation (H1 receptor, calcium ion); settings: 100 μM
Experimental: To express the fusion proteins in a combination of the following (A) or (B), the plasmid vectors prepared above were introduced into HeLaS3 cells by a method described below: • (A) Calumodulin-mAG1 and M13peptide-PB1; and • (B) Calumodulin-mUkG1 and M13peptide-PB1.
First, HeLaS3 cells were cultured in DMEM (low glucose) containing 10% FBS (manufactured by Equitech-Bio Inc.). Then, on the day before the transfection, the HeLaS3 cells were seeded onto a 35-mm glass base dish (manufactured by Asahi Glass Co., Ltd.). Subsequently, at the time of the transfection, the plasmids (1 μg+1 μg) were diluted with OptiMEM, and 10 μl of PolyFect(registered trademark) Transfection Reagent was added thereto and stirred. The resultant was further mixed with 600 μl of the culture solution, thereafter added to the HeLaS3 cells, and cultured for 22 hours.
Then, 100 μM histamine (manufactured by Wako Pure Chemical Industries, Ltd.) was added thereto, and fluorescence images were captured over time.

[8] = tested on: homodimer formation of STAT3; test: Fluorescent focus detection of STAT3 homodimer formation after IL-6, HEK293 cells constitutively expressing PB1-mAG1-STAT3 (Example 12); assay type: cell-based; settings: 100 ng/ml, 50 minutes; none before addition
Experimental: HEK293 cells were selected as cells into which the expression vector prepared above was introduced. The cells were first cultured in DMEM (high glucose) supplemented with 10% FBS and 1% penicillin-streptomycin. Then, on the day before the introduction of the expression vector, these cells were seeded onto a 35-mm dish, and cultured in 1.5 ml of the culture solution. […] Thereafter, the mixture solution of the expression vector was added to the cultured cells. After that, G418 was added thereto at a concentration of 500 μg/mL, and further cultured for one week. Next, viable cells were detached using a trypsin solution, diluted with a culture solution containing G418 (500 μg/ml), and then cultured in a 96-well plate at 0.5 cells/well. Subsequently, cells which formed single colonies were cultured to expand.
Then, the cells were observed using an IX-71 inverted fluorescence microscope (the magnification of the objective lens: 20×), a U-MGFPHQ filter, and an ORCA-ER digital camera. The homodimer formation of STAT3 was induced by adding Human Recombinant IL-6 (manufactured by R&D SYSTEMS, INC.) to the buffer to the final concentration of 100 ng/ml.

EGF: epidermal growth factor, manufactured by Sigma-Aldrich Co. (NSDSECPLSHDGYCLHDGVCMYIEALDKYACNCVVGYIGERCQYRDLKWWELR; UniProt P01133 971-1023, looked up)
fluorescent focus formation ([1]; 50 ng/ml, 8 minutes, ERK2-mAG1-PB1 transient, none before addition): fluorescent foci were observed in multiple cells
fluorescent focus formation ([1]; 8 minutes after EGF addition, cells constitutively expressing ERK2-PB1-hmAG1 (FIG. 27)): fluorescent foci indicating the homodimer formation of ERK2 were detected

CC[C@H](C(=O)N1CCCC[C@H]1C(=O)O[C@H](CCc1ccc(OC)c(OC)c1)c1cccc(OCC(=O)NCC(CNC(=O)COc2cccc([C@@H](CCc3ccc(OC)c(OC)c3)OC(=O)[C@@H]3CCCCN3C(=O)[C@@H](CC)c3cc(OC)c(OC)c(OC)c3)c2)CN(C)C)c1)c1cc(OC)c(OC)c(OC)c1 [B/B Homodimerizer]
fluorescent focus formation [2]: drug-addition dependent increases in fluorescent foci were observed
fluorescent focus formation ([3]; 38 minutes after the drug addition, none before addition): fluorescent foci were observed in multiple cells
fluorescent focus formation ([3]; 76 minutes after the addition): many cells which exhibited distinctive fluorescent foci were observed
fluorescent focus formation ([4]; 500 nM, 90 minutes after the B/B Homodimerizer addition): distinctive fluorescent foci were observed in multiple cells
fluorescence intensity relative to that before the addition ([4]; when formation of fluorescent foci started to be observed immediately after the B/B Homodimerizer addition): 1.9 times
fluorescent focus formation [5]: fluorescent foci were formed only in a few cells
fluorescent focus formation [6]: fluorescent focus formations attributable to the addition of the drug

NCCc1c[nH]cn1 [histamine]
fluorescent focus formation ([7]; 60 seconds after the ligand was added, Calmodulin-mAG1 or Calmodulin-mUkG1 with M13peptide-PB1): fluorescent focus formation was detected
extinction of fluorescent foci ([7]; 300 seconds after the ligand addition (FIG. 35)): the fluorescent foci (assemblies) were extinguished

IL-6: Human Recombinant IL-6, manufactured by R&D SYSTEMS, INC.
fluorescent focus formation [8]: fluorescent foci were observed in multiple cells
